In article PMC2765816 (European journal of pharmacology, 2008):

How the values were obtained:
[1] = biological target: T1, adenosine A2B receptor (Homo sapiens, UniProt P29275); details: ref Hide et al., 1992; cited from earlier work
T1 sequence (P29275 1-332): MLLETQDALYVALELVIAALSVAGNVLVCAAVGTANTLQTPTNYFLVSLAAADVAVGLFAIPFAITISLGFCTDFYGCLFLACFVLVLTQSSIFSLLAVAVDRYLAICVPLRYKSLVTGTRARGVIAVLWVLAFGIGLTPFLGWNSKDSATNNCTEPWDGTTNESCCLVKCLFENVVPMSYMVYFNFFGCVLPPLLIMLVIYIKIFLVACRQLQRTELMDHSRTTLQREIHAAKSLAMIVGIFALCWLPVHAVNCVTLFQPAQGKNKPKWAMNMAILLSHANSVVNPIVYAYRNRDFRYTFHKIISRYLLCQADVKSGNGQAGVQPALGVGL

[2] = biological target: adenosine A2A-CFP receptor (Homo sapiens, UniProt P29274); details: 0.45 M; agonist 2 μM NECA
Sequence of adenosine A2A-CFP receptor (P29274 1-363): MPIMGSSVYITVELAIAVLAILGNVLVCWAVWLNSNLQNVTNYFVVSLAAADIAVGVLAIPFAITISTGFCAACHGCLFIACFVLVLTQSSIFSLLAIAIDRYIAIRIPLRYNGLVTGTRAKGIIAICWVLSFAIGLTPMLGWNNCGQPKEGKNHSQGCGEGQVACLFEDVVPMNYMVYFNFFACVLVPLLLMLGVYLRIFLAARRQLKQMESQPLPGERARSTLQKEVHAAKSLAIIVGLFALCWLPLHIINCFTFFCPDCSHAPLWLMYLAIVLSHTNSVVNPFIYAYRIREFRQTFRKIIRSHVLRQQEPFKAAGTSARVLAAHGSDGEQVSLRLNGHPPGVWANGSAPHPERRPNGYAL

Q: With `CCNC(=O)[C@H]1O[C@@H](n2cnc3c(N)nc(NCCc4ccc(CCC(=O)NCCN)cc4)nc32)[C@H](O)[C@@H]1O` [APEC, 2-[4-(2-aminoethylaminocarbonylethyl)phenylethylamino]-5′-N-ethylcarboxamidoadenosine] as the molecule, how does the “activity at the adenosine A2B receptor” value [1] read?
A: The value was “inactive”.

Q: For `OC[C@H]1O[C@@](CO)(O[C@H]2O[C@H](CO)[C@@H](O)[C@H](O)[C@H]2O)[C@@H](O)[C@@H]1O` [hyperosmolar sucrose, sucrose], which “effect on agonist-induced internalization of A2A-CFP” value [2] is on record?
A: The value was “prevented agonist-induced internalization”.
